How the values were obtained:
LPA1 = LPA1 (Homo sapiens, UniProt Q92633); assay: LPA1 Migration Assay (Oris); type: cell-based; set-up: host or cells: primary fibroblasts (lung, dermal), HFL-1, 3T3 and CHO cells expressing LPA1R; settings: read-out: Cell Migration EC50
Outline: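 Antagonist inhibition was derived by 4-parameter logistic fitting of migrated-cell counts against compound concentration. Dye-loaded, 12-24 h serum-starved fibroblasts, HFL-1, 3T3 or CHO cells expressing LPA1R moved into an Oris detection zone in response to LPA or serum, then were fixed and counted on a high-content reader.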

LPA/S1P GPCR of interest = biological target: T1, LPA/S1P GPCR of interest (Homo sapiens, UniProt Q92633); assay: Beta-Arrestin based assay (PathHunter); type: cell-based
T1 construct: host or cells: CHO
T1 sequence (Q92633 whole entry): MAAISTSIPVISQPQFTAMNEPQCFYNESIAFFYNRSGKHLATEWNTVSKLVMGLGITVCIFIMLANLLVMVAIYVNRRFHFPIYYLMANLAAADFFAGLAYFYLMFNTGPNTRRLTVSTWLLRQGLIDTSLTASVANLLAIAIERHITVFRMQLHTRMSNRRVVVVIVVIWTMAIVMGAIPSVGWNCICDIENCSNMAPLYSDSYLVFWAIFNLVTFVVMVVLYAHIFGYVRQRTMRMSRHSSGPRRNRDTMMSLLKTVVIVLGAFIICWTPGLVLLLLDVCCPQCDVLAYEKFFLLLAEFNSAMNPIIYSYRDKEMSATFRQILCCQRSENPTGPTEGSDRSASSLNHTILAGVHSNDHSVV
Outline: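 EA Parental CHO cells (DiscoverX) were transfected with FuGENE (Roche) using CMV promoter-driven DNA constructs encoding the LPA/S1P GPCR of interest fused to a ProLink tag. Beta-arrestin recruitment in agonist mode was assessed 24-48 hrs later with PathHunter kits. Tests ran in quadruplicate in white 384 well plates, and end point luminescence was fit to a 4 parameter logistic function.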

Sequence of LPA1 (Q92633 whole entry): as above

| SMILES | EC50 (LPA1) [nM] | EC50 (LPA/S1P GPCR of interest) [nM] |
| --- | --- | --- |
| C[C@@H](OC(=O)Nc1c(-c2cc3sc(-c4cnc(C5(C(=O)O)CC5)s4)cc3s2)nnn1C)c1ccccc1 [IT189] | > 500 | 50 to 500 |
| CCOc1cc(CC(=O)O)ccc1-c1cc2sc(-c3nnn(C)c3NC(=O)O[C@H](C)c3ccccc3)cc2s1 [IT191] | > 500 | > 500 |
| CCOc1cc(CC(=O)O)ccc1-c1cc2sc(-c3snc(C)c3NC(=O)O[C@H](C)c3ccccc3)cc2s1 [IT192] | > 500 | > 500 |
| Cc1nsc(-c2ccc(NC(=O)c3csc(C4(C(=O)O)CC4)c3)cc2)c1NC(=O)O[C@H](C)c1ccccc1 [IT193] | > 500 | 50 to 500 |
| C[C@@H](OC(=O)Nc1c(-c2cc3sc(-c4ccc(C5(C(=O)O)CC5)cc4F)cc3s2)nnn1C)c1ccccc1 [IT246] | 50 to 500 | < 50 |
| Cc1noc(-c2ccc(-c3ccc(Oc4ccccc4C(=O)O)nn3)cc2)c1NC(=O)O[C@H](C)c1ccccc1 [IT259] | > 500 | 50 to 500 |
| C[C@@H](OC(=O)Nc1c(-c2cc3sc(-c4ccc(C5(C(=O)O)CC5)nc4)cc3s2)nnn1C)c1ccccc1 [IT270] | 50 to 500 | < 50 |
| Cc1cc(C2(C(=O)O)CC2)ccc1-c1cc2sc(-c3nnn(C)c3NC(=O)O[C@H](C)c3ccccc3)cc2s1 [IT291] | 50 to 500 | < 50 |
| C[C@@H](OC(=O)Nc1c(-c2cc3sc(-c4ccc(C5(C(=O)O)CC5)c(F)c4)cc3s2)cnn1C)c1ccccc1 [IT295] | 50 to 500 | < 50 |
| C[C@@H](OC(=O)Nc1c(-c2ccc(-c3cc(F)c(OC4(C(=O)O)CC4)c(F)c3)cc2)cnn1C)c1ccccc1 [IT314] | > 500 | < 50 |
| C[C@@H](OC(=O)Nc1c(-c2cc3sc(-c4ccc5scc(CC(=O)O)c5c4)cc3s2)nnn1C)c1ccccc1 [IT336] | 50 to 500 | < 50 |
| C[C@@H](OC(=O)Nc1c(-c2cc3sc(-c4ccc(C5(C(=O)O)CC5)c(F)c4F)cc3s2)nnn1C)c1ccccc1 [IT365] | 50 to 500 | < 50 |
| C[C@@H](OC(=O)Nc1c(-c2cc3sc(-c4ccc(C5(C(=O)O)CC5)cc4Cl)cc3s2)nnn1C)c1ccccc1 [IT390] | 50 to 500 | < 50 |
| Cc1nsc(-c2cc3sc(-c4cnc(C5(C(=O)O)CC5)c(F)c4)cc3s2)c1NC(=O)O[C@H](C)c1ccccc1 [IT394] | 50 to 500 | < 50 |
| Cc1noc(-c2ccc(-c3ccc(Oc4ncsc4C(=O)O)cc3)cc2)c1NC(=O)O[C@H](C)c1ccccc1 [IT417] | 50 to 500 | 50 to 500 |
| Cc1onc(-c2cc3sc(C#CC4(C(=O)O)CC4)cc3s2)c1NC(=O)O[C@H](C)c1ccccc1 [IT418] | 50 to 500 | < 50 |
| Cc1noc(-c2ccc(-c3ccc(Oc4scnc4C(=O)O)cc3)cc2)c1NC(=O)O[C@H](C)c1ccccc1 [IT420] | 50 to 500 | < 50 |
| Cc1nnn(-c2ccc(-c3cc(F)c(Oc4ccncc4C(=O)O)c(F)c3)cc2)c1NC(=O)O[C@H](C)c1ccccc1 [IT440] | > 500 | 50 to 500 |
| C[C@@H](OC(=O)Nc1c(-c2ccc(-c3ccc(Oc4cccc(F)c4C(=O)O)cc3)cc2)cnn1C)c1ccccc1 [IT456] | 50 to 500 | < 50 |
| Cc1nnn(-c2ccc(-c3ccc(Oc4cccc(F)c4C(=O)O)cc3)cc2)c1NC(=O)O[C@H](C)c1ccccc1 [IT457] | > 500 | 50 to 500 |
| Cc1noc(-c2ccc(-c3ccc(Oc4ccc(F)cc4C(=O)O)cc3)cc2)c1NC(=O)O[C@H](C)c1ccccc1 [IT459] | 50 to 500 | < 50 |
| C[C@@H](OC(=O)Nc1c(-c2ccc(-c3ccc(Oc4ccc(F)cc4C(=O)O)cc3)cc2)nnn1C)c1ccccc1 [IT460] | < 50 | < 50 |

Results, then the compound that gave them:

| EC50 (LPA1) [nM] | EC50 (LPA/S1P GPCR of interest) [nM] | SMILES |
| --- | --- | --- |
| > 500 | > 500 | CCOc1cc(CC(=O)O)ccc1-c1cc2sc(-c3cnn(C)c3NC(=O)O[C@H](C)c3ccccc3)cc2s1 [IT190] |
| > 500 | > 500 | Cc1noc(-c2ccc(-c3ccc(NC(=O)OC(C)(C)C)cc3)cc2)c1NC(=O)O[C@H](C)c1ccccc1 [IT194] |
| > 500 | 50 to 500 | Cc1noc(-c2ccc(-c3ccc(NS(C)(=O)=O)cc3)cc2)c1NC(=O)O[C@H](C)c1ccccc1 [IT195] |
| 50 to 500 | < 50 | Cc1nsc(-c2cc(F)c(-c3nc4sc(C5(C(=O)O)CC5)cc4s3)cc2F)c1NC(=O)O[C@H](C)c1ccccc1 [IT201] |
| 50 to 500 | < 50 | Cc1noc(-c2ccc(-c3ccc(Oc4ncncc4C(=O)O)cc3)cc2)c1NC(=O)O[C@H](C)c1ccccc1 [IT230] |
| 50 to 500 | 50 to 500 | Cc1noc(-c2ccc(-c3ccc(Oc4nnccc4C(=O)O)cc3)cc2)c1NC(=O)O[C@H](C)c1ccccc1 [IT231] |
| 50 to 500 | < 50 | Cc1noc(-c2ccc(-c3ccc(Oc4nccnc4C(=O)O)cc3)cc2)c1NC(=O)O[C@H](C)c1ccccc1 [IT232] |
| 50 to 500 | < 50 | Cc1noc(-c2ccc(-c3ccc(Oc4cnccc4C(=O)O)cc3)cc2)c1NC(=O)O[C@H](C)c1ccccc1 [IT257] |
| 50 to 500 | < 50 | Cc1cc(C2(C(=O)O)CC2)ccc1-c1cc2sc(-c3cnn(C)c3NC(=O)O[C@H](C)c3ccccc3)cc2s1 [IT260] |
| 50 to 500 | < 50 | Cc1nsc(-c2cc3sc(-c4cc(F)c(C5(C(=O)O)CC5)c(F)c4)cc3s2)c1NC(=O)O[C@H](C)c1ccccc1 [IT263] |
| 50 to 500 | < 50 | C[C@@H](OC(=O)Nc1c(-c2cc3sc(-c4ccc(C5(C(=O)O)CC5)c(Cl)c4)cc3s2)nnn1C)c1ccccc1 [IT266] |
| 50 to 500 | < 50 | C[C@@H](OC(=O)Nc1c(-c2cc(F)c(-c3nc4sc(C5(C(=O)O)CC5)cc4s3)cc2F)cnn1C)c1ccccc1 [IT279] |
| 50 to 500 | < 50 | Cc1nsc(-c2cc(Cl)c(-c3cc4sc(C5(C(=O)O)CC5)cc4s3)cc2F)c1NC(=O)O[C@H](C)c1ccccc1 [IT281] |
| 50 to 500 | 50 to 500 | C[C@@H](OC(=O)Nc1c(-c2cc3sc(-c4cc(Cl)c(C5(C(=O)O)CC5)cc4F)cc3s2)cnn1C)c1ccccc1 [IT284] |
| 50 to 500 | < 50 | C[C@@H](OC(=O)Nc1c(-c2cc3sc(-c4cc(Cl)c(C5(C(=O)O)CC5)cc4F)cc3s2)nnn1C)c1ccccc1 [IT285] |
| 50 to 500 | < 50 | C[C@@H](OC(=O)Nc1c(-c2cc3sc(-c4ccc(C5(C(=O)O)CC5)c(F)c4)cc3s2)nnn1C)c1ccccc1 [IT296] |
| > 500 | 50 to 500 | Cc1nnn(-c2ccc(-c3ccc(Oc4ccccc4C(=O)O)cc3)cc2)c1NC(=O)O[C@H](C)c1ccccc1 [IT310] |

| EC50 (LPA1) [nM] | EC50 (LPA/S1P GPCR of interest) [nM] | SMILES |
| --- | --- | --- |
| 50 to 500 | 50 to 500 | C[C@@H](OC(=O)Nc1c(C#Cc2cc(F)c(OC3(C(=O)O)CC3)c(F)c2)cnn1C)c1ccccc1 [IT311] |
| 50 to 500 | < 50 | C[C@@H](OC(=O)Nc1c(-c2ccc(-c3cc(F)c(OC4(C(=O)O)CC4)c(F)c3)cc2)nnn1C)c1ccccc1 [IT312] |
| > 500 | 50 to 500 | Cc1nnn(-c2ccc(-c3cc(F)c(OC4(C(=O)O)CC4)c(F)c3)cc2)c1NC(=O)O[C@H](C)c1ccccc1 [IT313] |
| 50 to 500 | < 50 | Cc1noc(-c2ccc(-c3ccc(Oc4ccccc4C(=O)O)cn3)cc2)c1NC(=O)O[C@H](C)c1ccccc1 [IT344] |
| 50 to 500 | < 50 | C[C@@H](OC(=O)Nc1c(-c2cc3sc(-c4cc(F)c(C5(C(=O)O)CC5)cc4F)cc3s2)cnn1C)c1ccccc1 [IT347] |
| 50 to 500 | < 50 | C[C@@H](OC(=O)Nc1c(-c2cc3sc(-c4cc(F)c(C5(C(=O)O)CC5)cc4F)cc3s2)nnn1C)c1ccccc1 [IT348] |
| < 50 | < 50 | Cc1noc(-c2ccc(-c3ccc(Oc4ccccc4C(=O)O)c(F)c3)cc2)c1NC(=O)O[C@H](C)c1ccccc1 [IT355] |
| 50 to 500 | < 50 | C[C@@H](OC(=O)Nc1c(-c2cc3sc(-c4ccc(C5(C(=O)O)CC5)c(F)c4F)cc3s2)cnn1C)c1ccccc1 [IT364] |
| 50 to 500 | < 50 | C[C@@H](OC(=O)Nc1c(-c2cc3sc(-c4ccc(C5(C(=O)O)CC5)cc4Cl)cc3s2)cnn1C)c1ccccc1 [IT389] |
| 50 to 500 | > 500 | C[C@@H](OC(=O)Nc1c(-c2ccc(C#CC(=O)N[C@@H](C(=O)O)c3ccccc3)cc2)cnn1C)c1ccccc1 [IT401] |
| 50 to 500 | < 50 | C[C@@H](OC(=O)Nc1c(-c2cc3sc(-c4ccc(Oc5ccccc5C(=O)O)cc4)cc3s2)cnn1C)c1ccccc1 [IT406] |
| 50 to 500 | < 50 | Cc1noc(-c2ccc(-c3ccc(Oc4ccsc4C(=O)O)cc3)cc2)c1NC(=O)O[C@H](C)c1ccccc1 [IT428] |
| 50 to 500 | < 50 | Cc1nnn(-c2ccc(-c3cc(F)c(Oc4cccnc4C(=O)O)c(F)c3)cc2)c1NC(=O)O[C@H](C)c1ccccc1 [IT437] |
| > 500 | < 50 | Cc1nsc(-c2ccc(-c3cc(F)c(Oc4ccncc4C(=O)O)c(F)c3)cc2)c1NC(=O)O[C@H](C)c1ccccc1 [IT439] |
| 50 to 500 | < 50 | Cc1noc(-c2ccc(-c3ccc(Oc4cccc(F)c4C(=O)O)cc3)cc2)c1NC(=O)O[C@H](C)c1ccccc1 [IT454] |
| < 50 | < 50 | C[C@@H](OC(=O)Nc1c(-c2ccc(-c3ccc(Oc4cccc(F)c4C(=O)O)cc3)cc2)nnn1C)c1ccccc1 [IT455] |

Reference: patent US20140213538A1, “LYSOPHOSPHATIDIC ACID RECEPTOR ANTAGONISTS” (InterMune, Inc., priority 2013, published 2014)
